Test systems include A498 renal; MOLT-4 leukemia; SR leukemia; OVCAR-3 ovarian; MCF7 breast; CCRF-CEM leukemia; U251 CNS; HCT-15 colon; SK-OV-3 ovarian; SF-268 CNS.
What all share (test): DTP human tumour cell line panel, 48 h

This passage reports TGI results from PubChem BioAssay (NCI).

Usually TGI stands for the concentration at which net growth stops. Read a low TGI as greater sensitivity of the cells.

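A five-concentration, 48-hour dose response in 96-well plates underlies each endpoint, interpolated linearly between surrounding concentrations. The concentration for full growth arrest is given as TGI.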 Bounds are passed on as bounds.

For `Nc1ccc2c(=O)cc(-c3ccc(Br)s3)[nH]c2n1`, the TGI in the test with A498 renal was more than 100 µM; in the test on MOLT-4 leukemia it was 13.2 µM; with SR leukemia, more than 51.1 µM; in the test on OVCAR-3 ovarian, more than 100 µM; with MCF7 breast it was more than 100 µM; in the test on CCRF-CEM leukemia, more than 100 µM. The concentration for total growth inhibition (TGI) with U251 CNS is more than 74.4 µM; in the test with HCT-15 colon, more than 100 µM; with SK-OV-3 ovarian, more than 53.1 µM; in the test with SF-268 CNS it was more than 100 µM.
Regarding `CCCC1=C(OC)C(=O)c2c(C)cc(Cl)nc2C1=O`, the concentration for total growth inhibition (TGI) in the test with A498 renal was determined as 35 µM; in the test on MOLT-4 leukemia it was 3.72 µM; in the test on SR leukemia, 5.11 µM; with OVCAR-3 ovarian, 6.54 µM; in the test on MCF7 breast, 6.17 µM; in the test on CCRF-CEM leukemia, 2.77 µM. The TGI with U251 CNS came out at 18.6 µM; in the test with HCT-15 colon, 11.2 µM; in the test on SK-OV-3 ovarian, 31 µM; in the test with SF-268 CNS, 27.2 µM.
`CC(C)OP(=O)(OC(C)C)C(C(C)C)N(C)C(N)=NC#N` (stereo not drawn): the TGI in the test on A498 renal, in the test with MOLT-4 leukemia, with SR leukemia, with OVCAR-3 ovarian, in the test with MCF7 breast and with CCRF-CEM leukemia was more than 100 µM throughout. In addition, the TGI in the test on U251 CNS, in the test on HCT-15 colon, in the test on SK-OV-3 ovarian and with SF-268 CNS was more than 100 µM throughout.
Turning to `Oc1cccc2c(Br)ccnc12`, the TGI in the test on A498 renal was 39.1 µM; in the test with MOLT-4 leukemia, 6.91 µM; in the test on SR leukemia it was 4.31 µM; in the test with OVCAR-3 ovarian, 7.81 µM; in the test on MCF7 breast it was more than 31.6 µM; in the test with CCRF-CEM leukemia, 4.1 µM. For the same compound, the concentration for total growth inhibition (TGI) was 20.4 µM in the test on U251 CNS, 24.2 µM with HCT-15 colon, 66.8 µM with SK-OV-3 ovarian and 14.2 µM in the test with SF-268 CNS.
Turning to `O=C1C=CC(=O)c2c(O)c(N3CCOCC3)c(Cl)c(O)c21`, the total growth inhibition concentration (TGI) was 3.01 µM in the test on A498 renal; more than 2.13 µM with MOLT-4 leukemia; more than 7.34 µM in the test with SR leukemia; 1.31 µM in the test with OVCAR-3 ovarian; 0.486 µM in the test on MCF7 breast; more than 10 µM in the test with CCRF-CEM leukemia. Further, the TGI was 2.62 µM with U251 CNS, 0.403 µM with HCT-15 colon, 6.22 µM in the test on SK-OV-3 ovarian and 3.19 µM with SF-268 CNS.
In the case of `COc1cccc(NC(=O)CC(=O)n2nc(-c3ccccc3)c(N=Nc3ccc(Cl)cc3)c2-c2ccccc2)c1`, the total growth inhibition concentration (TGI) in the test on A498 renal was more than 83.1 µM; with MOLT-4 leukemia, more than 59.3 µM; in the test with SR leukemia it was more than 73.2 µM; in the test with OVCAR-3 ovarian, 99.1 µM; in the test with MCF7 breast, 45.3 µM; with CCRF-CEM leukemia, more than 39.6 µM. Further, the TGI was 77.9 µM with U251 CNS, more than 100 µM with HCT-15 colon, more than 79.9 µM with SK-OV-3 ovarian and 49.4 µM with SF-268 CNS.
Take `NC1CCCCC1NCCNC1CCCCC1N` (stereo not drawn): the TGI with A498 renal, in the test with MOLT-4 leukemia, in the test on SR leukemia, in the test with OVCAR-3 ovarian, with MCF7 breast and in the test on CCRF-CEM leukemia was more than 100 µM each time. The TGI in the test on U251 CNS, in the test on HCT-15 colon, with SK-OV-3 ovarian and with SF-268 CNS was more than 100 µM in each case.
Turning to `CC(c1ccccc1)n1cncc1C(=O)NN1CCN(C)CC1` (stereo not drawn), the concentration for total growth inhibition (TGI) in the test with A498 renal, in the test with MOLT-4 leukemia, in the test with SR leukemia, in the test on OVCAR-3 ovarian, with MCF7 breast and in the test with CCRF-CEM leukemia was more than 10 µM throughout. The TGI in the test on U251 CNS, with HCT-15 colon, in the test with SK-OV-3 ovarian and in the test on SF-268 CNS was more than 10 µM in each case.
Take `Cc1ccc(N=C/C=C(\Nc2ccc(C)cc2)c2ccc3ccccc3c2)cc1`: the TGI is 24.2 µM with A498 renal; 0.533 µM with MOLT-4 leukemia; 1.44 µM with SR leukemia; 11.2 µM in the test on OVCAR-3 ovarian; 16.5 µM with MCF7 breast; 0.558 µM in the test with CCRF-CEM leukemia. In addition, the TGI was 7.23 µM in the test with U251 CNS, 4.24 µM in the test on HCT-15 colon, 9.71 µM in the test on SK-OV-3 ovarian and 28.8 µM in the test on SF-268 CNS.
On to `Cc1nc(C)c(N2CCN(CN)CC2)c(=O)[nH]1`, for which the TGI with A498 renal, in the test on MOLT-4 leukemia, in the test with SR leukemia, in the test with OVCAR-3 ovarian, with MCF7 breast and in the test with CCRF-CEM leukemia was more than 100 µM throughout. Also, the TGI with U251 CNS, in the test on HCT-15 colon, in the test on SK-OV-3 ovarian and with SF-268 CNS was more than 100 µM throughout.
On to `c1ccc2c(Nc3ncco3)cccc2c1`, for which the TGI with A498 renal, in the test on MOLT-4 leukemia, in the test with SR leukemia, in the test on OVCAR-3 ovarian, in the test on MCF7 breast and in the test with CCRF-CEM leukemia was more than 10 µM throughout. Besides, the total growth inhibition concentration (TGI) in the test on U251 CNS, in the test on HCT-15 colon, in the test with SK-OV-3 ovarian and in the test on SF-268 CNS was more than 10 µM each time.
As to `O=[N+]([O-])c1ccc(N2N=C(c3c(O)ccc4ccccc34)CC2c2ccc(Cl)cc2)c([N+](=O)[O-])c1` (stereo not drawn), the TGI in the test with A498 renal was 63.9 µM; with MOLT-4 leukemia, 32.4 µM; in the test on SR leukemia, 31.4 µM; in the test on OVCAR-3 ovarian, more than 100 µM; in the test with MCF7 breast it was more than 100 µM; with CCRF-CEM leukemia it was 31 µM. Besides, the TGI in the test with U251 CNS, with HCT-15 colon, in the test on SK-OV-3 ovarian and in the test with SF-268 CNS was more than 100 µM each time.
For `C=C(CN(CC)CC)C1(c2ccccc2)CC2(CCCC2)C(=O)O1` (stereo not drawn), the TGI in the test with A498 renal, with MOLT-4 leukemia, with SR leukemia, in the test with OVCAR-3 ovarian, with MCF7 breast and with CCRF-CEM leukemia was more than 100 µM each time. The concentration for total growth inhibition (TGI) in the test with U251 CNS, in the test with HCT-15 colon, with SK-OV-3 ovarian and in the test on SF-268 CNS was more than 100 µM each time.
Take `O=C1C=CC2(O[C@H](C3CCCCC3)[C@@H](C3CCCCC3)O2)C(SC(=O)c2ccccc2)C1` (stereo partly drawn): the TGI in the test with A498 renal turned out to be 18.4 µM; in the test on MOLT-4 leukemia it was 3.77 µM; in the test on SR leukemia, 2.36 µM; with OVCAR-3 ovarian, 2.04 µM; with MCF7 breast it was 5.08 µM; in the test with CCRF-CEM leukemia, 5.87 µM. The TGI in the test on U251 CNS worked out at 6.86 µM; in the test on HCT-15 colon, 9.47 µM; in the test with SK-OV-3 ovarian, 33.5 µM; in the test with SF-268 CNS it was 5.89 µM.
`O=S(=O)(/N=S(/Nc1ccccc1)C(F)(F)Cl)c1ccccc1` (stereo not drawn): the TGI with A498 renal, with MOLT-4 leukemia, in the test with SR leukemia, with OVCAR-3 ovarian, in the test with MCF7 breast and in the test on CCRF-CEM leukemia was more than 100 µM each time. In addition, the TGI in the test on U251 CNS, in the test on HCT-15 colon, in the test on SK-OV-3 ovarian and with SF-268 CNS was more than 100 µM in each case.
For the compound `COC(=O)CCC(=O)NC1=C(Nc2ccccc2)C(=O)c2ccccc2C1=O`, the TGI in the test with A498 renal was found to be 28.6 µM; in the test with MOLT-4 leukemia, 38.9 µM; in the test on SR leukemia, 56.7 µM; with OVCAR-3 ovarian, 10.4 µM; in the test with MCF7 breast it was 10.4 µM; in the test on CCRF-CEM leukemia, 42.9 µM. Besides, the TGI with U251 CNS was determined as 24.2 µM; in the test with HCT-15 colon, 27.6 µM; in the test on SK-OV-3 ovarian it was 30.9 µM; with SF-268 CNS, 51.5 µM.
For the compound `CSc1nnc(SCc2nn3c(=O)cc(C)nc3s2)s1`, the total growth inhibition concentration (TGI) in the test with A498 renal, in the test on MOLT-4 leukemia, in the test on SR leukemia, in the test with OVCAR-3 ovarian, in the test with MCF7 breast and in the test on CCRF-CEM leukemia was more than 100 µM each time. The TGI in the test with U251 CNS, in the test on HCT-15 colon, in the test on SK-OV-3 ovarian and in the test with SF-268 CNS was more than 100 µM in each case.
Regarding `O=C1CCCCC/C1=C\c1cccc(F)c1`, the TGI was more than 100 µM with A498 renal; more than 100 µM with MOLT-4 leukemia; 61.2 µM in the test with SR leukemia; more than 100 µM with OVCAR-3 ovarian; more than 100 µM in the test on MCF7 breast; 81.4 µM in the test on CCRF-CEM leukemia. In addition, the total growth inhibition concentration (TGI) in the test on U251 CNS, with HCT-15 colon, with SK-OV-3 ovarian and with SF-268 CNS was more than 100 µM in each case.
Regarding `Cc1ccc(S(=O)(=O)OCCC2CN(C(=O)OCc3ccccc3)C(C)(C)O2)cc1` (stereo not drawn), the TGI in the test on A498 renal is more than 100 µM; with MOLT-4 leukemia, 47.8 µM; in the test on SR leukemia it was more than 100 µM; with OVCAR-3 ovarian it was more than 100 µM; in the test with MCF7 breast, 33.7 µM; in the test with CCRF-CEM leukemia, more than 100 µM. The concentration for total growth inhibition (TGI) in the test on U251 CNS was more than 100 µM; in the test with HCT-15 colon, 32.5 µM; in the test with SK-OV-3 ovarian it was more than 100 µM.
`O=C1C=C(N2CCN(c3ncccn3)CC2)C(=O)c2c(O)ccc(O)c21`: the concentration for total growth inhibition (TGI) in the test on A498 renal, in the test on MOLT-4 leukemia, in the test on SR leukemia, in the test with OVCAR-3 ovarian, with MCF7 breast and with CCRF-CEM leukemia was more than 100 µM each time. Moreover, the total growth inhibition concentration (TGI) in the test on U251 CNS, in the test on HCT-15 colon, with SK-OV-3 ovarian and in the test with SF-268 CNS was more than 100 µM each time.
As to `c1ccc2c[n+](CCCC[n+]3ccc4ccccc4c3)ccc2c1`, the TGI in the test with A498 renal, in the test with SR leukemia, with OVCAR-3 ovarian, in the test with MCF7 breast, with CCRF-CEM leukemia and in the test on U251 CNS was more than 100 µM each time. Moreover, the TGI with HCT-15 colon, with SK-OV-3 ovarian and in the test on SF-268 CNS was more than 100 µM each time.
